Like-named read-outs stand apart in the source and are kept apart here.
Key:
B. subtilis DSM 10 [1] = experiment: microbe, parasite or virus in culture; format: cell-based
Outline: (§1)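 Broth microdilution in cation-adjusted MHB II with twofold serial compound dilutions; final inoculum 5 × 10^5 CFU mL^−1, incubated 20 h at 37 ± 1 °C. MIC = lowest concentration preventing visible growth. β-Lactamase inhibitors were added at fixed levels (clavulanic acid 2 mg L^−1, avibactam 4 mg L^−1).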

E. faecalis ATCC 29212 = experiment: microbe, parasite or virus in culture; format: cell-based
Outline: as §1

[2] = test system: S. aureus ATCC 25923 (MSSA); experiment: microbe, parasite or virus in culture; format: cell-based
Outline: as §1

[3] = test system: S. aureus NCTC 10442 (MRSA); experiment: microbe, parasite or virus in culture; format: cell-based
Outline: as §1

[4] = test system: S. saprophyticus ATCC 15305; experiment: microbe, parasite or virus in culture; format: cell-based
Outline: as §1

[5] = test system: CTZ‐resistant P. aeruginosa (n = 2); format: cell-based
Experimental: The minimum inhibitory concentration (MIC) of the β‐lactam–peptide conjugates was determined by broth microdilution as previously described.^[ [17] ^] Briefly, in cation‐adjusted MHB II medium, a twofold serial dilution of the compounds was prepared in 96‐well round‐bottom polystyrene or polypropylene microtiter plates with each well containing 50 µL. The plates were inoculated with 50 µL bacterial suspension and the final inoculum, in a total volume of 100 µL, contained 5 × 10^5 CFU mL^−1. The microplates were incubated for 20 h at 37 ± 1 °C. The lowest concentration preventing visible bacterial growth was considered the MIC value. For susceptibility testing of combinations of β‐lactamase‐inhibitors with either a β‐lactam antibiotic or a β‐lactam–peptide conjugate, fixed concentrations of the inhibitors according to the EUCAST (European Committee on Antimicrobial Susceptibility Testing) guidelines (clavulanic acid = 2 mg L^−1, avibactam = 4 mg L^−1) were used.

B. subtilis DSM 10 [6] = experiment: Time‐kill assay; format: cell-based; conditions: for killing mechanism (time‐kill kinetics, CFU mL^−1): 50 or 100 µM, over 24 h
Experimental: For determination of time‐kill kinetics of the β‐lactam–peptide conjugates and their parent β‐lactams, 14 mL of cation‐adjusted MHB II medium was inoculated with an B. subtilis DSM 10 overnight culture to obtain an OD600 of 0.5, corresponding to ≈10^8 CFU mL^−1. To this exponentially growing culture, 50 or 100 µM of each of the antibiotics was added except for a negative control culture which was treated with only water. The bacterial cultures were incubated at 30 °C and 200 rpm and the OD600 was measured on 1 mL aliquots taken at 0, 10, 30, 45, 60, 90, 120, 240, 360, 480 and 1440 min. Additionally, at the same time points, 15 µL of serial tenfold dilutions of the bacterial suspension were plated onto MHB II agar plates. The agar plates were incubated overnight at 30 °C. The next day, bacterial colonies were counted and the CFU mL^−1 were calculated (limit of detection: 10^1.8 CFU mL^−1). For each antibiotic the assay was performed in triplicate (three biological replicates).

PBP1A/B = PBP1A/B (Bacillus subtilis, UniProt P39793); experiment: Gel‐based PBP affinity assay (Bocillin FL competition); format: binding; conditions: B. subtilis membrane fractions, competition with Bocillin FL penicillin
Experimental: (§2) B. subtilis DSM 10 and E. faecalis ATCC 51 299 (equal to DSM 12 956) membrane protein fractions were extracted according to the protocol of Dean et al. with minor modifications.^[ [34] ^] From a growing overnight bacterial culture, 3 L of LB (Luria‐Bertani) medium or TSB (tryptic soy broth) were inoculated with B. subtilis DSM 10 and E. faecalis ATCC 51 299, respectively, to obtain an OD600 = 0.3. The cultures were grown to an OD600 = 0.6–0.8 while shaking at 37 °C and cells were harvested by centrifugation at 4000 g for 30 min at 4 °C. The resulting pellet was washed twice with pre‐cooled PBS and resuspended in 30 mL of ice‐cooled PBS. The suspension was sonicated on ice (10 cycles of 30 s at 50% power for B. subtilis; 12 cycles of 30 s at 80% power for E. faecalis; 2 min intervals between cycles) using an Omni Ruptor 4000 ultrasonic homogenizer (Omni International, Kennesaw, GA, USA). Afterwards, the suspension was centrifuged at 7000 g for 10 min at 4 °C. The clear supernatant was transferred into a 50 mL polypropylene tube and centrifuged in a Beckman Coulter centrifuge equipped with a JA‐20 fixed‐angle rotor (Beckman Coulter, Krefeld, Germany) at 50 000 g for 1 h at 4 °C. The resulting pellet was washed with ice‐cold PBS and centrifuged a second time. The pellet was resuspended in 2 mL PBS and aliquots were stored at −80 °C. The protein content was determined using Bradford reagent (VWR International, Darmstadt, Germany) and Pierce BCA (bicinchoninic acid) protein assay kits (Thermo Fisher Scientific, Waltham, MA, USA) for membrane fractions of B. subtilis and E. faecalis, respectively.
(§3) Each dilution was combined with B. subtilis (30 µg) or E. faecalis (15 µg) extracted membrane fractions. As reference samples, membrane fractions incubated with only PBS were prepared. Reaction mixtures were incubated for 20 min at 37 °C while shaking at 400 rpm. Next, Bocillin FL penicillin (Thermo Fisher Scientific, Waltham, MA, USA) was added to obtain a final concentration of 20 µM in the mixture. Samples were incubated for 30 min at 37 °C while shaking at 400 rpm. To denature the samples, 4× Laemmli sample buffer (Bio‐Rad Laboratories, Feldkirchen, Germany) was added, and the samples incubated for 10 min at 70 °C. Afterwards, the samples were centrifuged for 5 min at 13 000 rpm. Samples were separated by SDS‐PAGE using a 10% Tris‐glycine gel for 100 min at 180 V. The bands were visualized using a Typhoon FLA 9500 imager (GE Healthcare, Chicago, IL, USA) with excitation at 473 nm. The gel images were analyzed using ImageJ software. Brightness and contrast were adjusted to improve the signal‐to‐noise ratio and the background signal was subtracted over the whole image. Next, integrated density values of the gel bands were measured and Bocillin FL penicillin labeling of each PBP in antibiotic‐treated samples were set in proportion to the reference sample. IC50 values were calculated with GraphPad Prism software (version 8.0.1) using inhibitor versus normalized response variable slope and least‐squares fit. […] The mean was calculated using the IC50 values of at least two independent assays for each antibiotic.

PBP2B = biological target: T1, PBP2B (Bacillus subtilis, UniProt Q07868); experiment: as above; format: binding; conditions: B. subtilis membrane fractions, competition with Bocillin FL penicillin
T1 construct: endogenous in cells; host or cells: B. subtilis DSM 10, extracted membrane protein fraction
Experimental: as §2, §3

PBP4 = biological target: T2, PBP4 (Bacillus subtilis, UniProt P40750); experiment: as above; format: binding; conditions: B. subtilis membrane fractions, competition with Bocillin FL penicillin
T2 construct: endogenous in cells; host or cells: B. subtilis DSM 10, extracted membrane protein fraction
Experimental: as §2, §3

T2 sequence (P40750 22-624): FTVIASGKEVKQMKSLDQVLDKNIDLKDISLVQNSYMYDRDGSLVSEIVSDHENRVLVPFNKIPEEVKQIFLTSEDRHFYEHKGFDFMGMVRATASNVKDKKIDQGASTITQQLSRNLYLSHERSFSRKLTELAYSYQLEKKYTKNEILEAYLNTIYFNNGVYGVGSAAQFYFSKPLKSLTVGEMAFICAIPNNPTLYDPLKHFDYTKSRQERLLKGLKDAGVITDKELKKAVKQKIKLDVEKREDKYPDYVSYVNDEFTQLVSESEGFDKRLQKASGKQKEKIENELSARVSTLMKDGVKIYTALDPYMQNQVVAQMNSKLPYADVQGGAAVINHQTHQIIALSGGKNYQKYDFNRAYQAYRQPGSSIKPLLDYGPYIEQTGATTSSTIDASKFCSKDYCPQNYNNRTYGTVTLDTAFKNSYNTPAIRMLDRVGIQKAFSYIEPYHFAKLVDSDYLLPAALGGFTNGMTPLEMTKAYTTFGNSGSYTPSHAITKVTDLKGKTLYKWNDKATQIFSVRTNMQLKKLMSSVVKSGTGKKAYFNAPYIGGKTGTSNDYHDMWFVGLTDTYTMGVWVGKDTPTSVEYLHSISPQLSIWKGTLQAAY
T1 sequence (Q07868 whole entry): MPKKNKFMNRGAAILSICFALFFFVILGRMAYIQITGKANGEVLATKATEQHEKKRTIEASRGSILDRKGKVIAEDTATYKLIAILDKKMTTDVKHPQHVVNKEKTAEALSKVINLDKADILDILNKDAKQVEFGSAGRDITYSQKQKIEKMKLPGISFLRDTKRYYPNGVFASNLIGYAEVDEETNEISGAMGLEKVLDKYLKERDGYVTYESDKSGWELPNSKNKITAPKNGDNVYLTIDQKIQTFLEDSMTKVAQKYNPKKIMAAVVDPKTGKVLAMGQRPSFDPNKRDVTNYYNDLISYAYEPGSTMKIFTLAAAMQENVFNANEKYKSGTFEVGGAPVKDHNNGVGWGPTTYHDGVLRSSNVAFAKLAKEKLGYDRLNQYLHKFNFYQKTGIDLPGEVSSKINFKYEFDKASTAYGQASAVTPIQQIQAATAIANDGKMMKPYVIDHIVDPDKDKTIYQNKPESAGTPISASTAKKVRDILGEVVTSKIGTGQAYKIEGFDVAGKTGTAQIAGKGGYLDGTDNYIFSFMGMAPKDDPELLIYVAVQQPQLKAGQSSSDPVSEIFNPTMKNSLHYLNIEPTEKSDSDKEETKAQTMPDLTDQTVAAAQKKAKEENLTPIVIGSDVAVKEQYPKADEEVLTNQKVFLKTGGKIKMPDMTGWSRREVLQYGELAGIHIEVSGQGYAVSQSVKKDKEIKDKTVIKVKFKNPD
Sequence of PBP1A/B (P39793 1-662): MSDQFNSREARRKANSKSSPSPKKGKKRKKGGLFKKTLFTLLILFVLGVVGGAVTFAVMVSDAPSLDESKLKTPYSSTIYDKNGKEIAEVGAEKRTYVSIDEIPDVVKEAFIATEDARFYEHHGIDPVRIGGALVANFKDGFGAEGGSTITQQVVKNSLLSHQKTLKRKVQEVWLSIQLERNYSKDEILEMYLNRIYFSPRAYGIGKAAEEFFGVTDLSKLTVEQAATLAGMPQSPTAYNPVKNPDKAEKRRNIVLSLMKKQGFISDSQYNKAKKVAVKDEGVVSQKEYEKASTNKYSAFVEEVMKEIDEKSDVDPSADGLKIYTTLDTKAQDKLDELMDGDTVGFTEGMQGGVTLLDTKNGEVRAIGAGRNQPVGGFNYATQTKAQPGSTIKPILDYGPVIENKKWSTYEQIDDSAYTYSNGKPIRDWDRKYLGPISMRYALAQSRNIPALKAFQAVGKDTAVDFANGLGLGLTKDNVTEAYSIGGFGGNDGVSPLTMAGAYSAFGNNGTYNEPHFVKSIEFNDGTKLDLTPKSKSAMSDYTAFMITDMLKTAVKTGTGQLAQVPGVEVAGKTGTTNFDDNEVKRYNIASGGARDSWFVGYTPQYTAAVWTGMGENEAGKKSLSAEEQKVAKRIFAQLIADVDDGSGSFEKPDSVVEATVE

Row | SMILES | MIC (B. subtilis DSM 10 [1]; Bacillus subtilis, DSM10, B. subtilis DSM 10, median (n = 3), read-out: MIC) | MIC (E. faecalis ATCC 29212; Enterococcus faecalis, ATCC29212, E. faecalis ATCC 29212, median (n = 3), read-out: MIC) | MIC ([2]; Staphylococcus aureus, S. aureus ATCC 25923 (MSSA), median (n = 3), read-out: MIC) | MIC ([3]; Staphylococcus aureus, S. aureus NCTC 10442 (MRSA), median (n = 3), read-out: MIC) | MIC ([4]; Staphylococcus saprophyticus, ATCC15305, S. saprophyticus ATCC 15305, median (n = 3), read-out: MIC) | MIC range ([5]; CTZ‐resistant P. aeruginosa (n = 2)) | killing mechanism (time‐kill kinetics, CFU mL^−1) (B. subtilis DSM 10 [6]) | binding to PBP1A/B (PBP1A/B) | binding to PBP2B (PBP2B) | binding to PBP4 (PBP4) | MIC (B. subtilis DSM 10 [1]; DSM 10, 20 h) | MIC (E. faecalis ATCC 29212; ATCC 29212, 20 h) | MIC ([2]; ATCC 25923, 20 h) | MIC ([3]; NCTC 10442, 20 h) | MIC ([4]; ATCC 15305, 20 h) | MIC range ([5]; CTZ‐resistant (n = 2, 20 h)) | drop in CFU (to the detection limit) (B. subtilis DSM 10 [6]; 100 µM, after 6 h)
1 | CC(C)(O/N=C(\C(=O)N[C@@H]1C(=O)N2C(C(=O)[O-])=C(C[n+]3ccccc3)CS[C@H]12)c1csc(N)n1)C(=O)O [CTZ, ceftazidime, reference compound] | 8 µg/mL | 4 µg/mL | 16 µg/mL | 16 µg/mL | 32 µg/mL | 32 to 64 µg/mL | time‐dependent killing mechanism | strong binding | strong binding | strong binding | – | – | – | – | – | – | –
2 | CC(C)(O/N=C(\C(=O)N[C@@H]1C(=O)N2C(C(=O)[O-])=C(C[n+]3ccccc3)CS[C@H]12)c1csc(N)n1)C(=O)NCCCCCCN1C(=O)CC(SC[C@H](NC(=O)[C@H](CCCNC(=N)N)NC(=O)[C@H](CCCNC(=N)N)NC(=O)[C@H](CCCNC(=N)N)NC(=O)[C@H](CCCNC(=N)N)NC(=O)[C@H](CCCNC(=N)N)NC(=O)[C@@H](N)CCCNC(=N)N)C(N)=O)C1=O (stereo partly drawn) [CTZ-R6] | – | – | – | – | – | – | concentration‐dependent killing mechanism | decreased in comparison to CTZ | showed affinity | decreased in comparison to CTZ | 0.008 µg/mL | <0.004 µg/mL | 4 µg/mL | 2 µg/mL | 0.02 µg/mL | 2 to 16 µg/mL | 6 log units

— PMC11672299, “Conjugation of Polycationic Peptides Extends the Efficacy Spectrum of β‐Lactam Antibiotics” (Advanced Science, 2024)
